Reference: patent US10775375B2, “Methods for identifying modulators of calcium-sensing receptors” (MARS, INCORPORATED, priority 2014, dated 2020)
Read-outs that look alike come from different tables or passages of the source.

Biological target: T1, feline calcium-sensing receptor (fCaSR) (Felis catus, UniProt C7FF08, X1044R)
T1 sequence (C7FF08 1-1081 X1044R): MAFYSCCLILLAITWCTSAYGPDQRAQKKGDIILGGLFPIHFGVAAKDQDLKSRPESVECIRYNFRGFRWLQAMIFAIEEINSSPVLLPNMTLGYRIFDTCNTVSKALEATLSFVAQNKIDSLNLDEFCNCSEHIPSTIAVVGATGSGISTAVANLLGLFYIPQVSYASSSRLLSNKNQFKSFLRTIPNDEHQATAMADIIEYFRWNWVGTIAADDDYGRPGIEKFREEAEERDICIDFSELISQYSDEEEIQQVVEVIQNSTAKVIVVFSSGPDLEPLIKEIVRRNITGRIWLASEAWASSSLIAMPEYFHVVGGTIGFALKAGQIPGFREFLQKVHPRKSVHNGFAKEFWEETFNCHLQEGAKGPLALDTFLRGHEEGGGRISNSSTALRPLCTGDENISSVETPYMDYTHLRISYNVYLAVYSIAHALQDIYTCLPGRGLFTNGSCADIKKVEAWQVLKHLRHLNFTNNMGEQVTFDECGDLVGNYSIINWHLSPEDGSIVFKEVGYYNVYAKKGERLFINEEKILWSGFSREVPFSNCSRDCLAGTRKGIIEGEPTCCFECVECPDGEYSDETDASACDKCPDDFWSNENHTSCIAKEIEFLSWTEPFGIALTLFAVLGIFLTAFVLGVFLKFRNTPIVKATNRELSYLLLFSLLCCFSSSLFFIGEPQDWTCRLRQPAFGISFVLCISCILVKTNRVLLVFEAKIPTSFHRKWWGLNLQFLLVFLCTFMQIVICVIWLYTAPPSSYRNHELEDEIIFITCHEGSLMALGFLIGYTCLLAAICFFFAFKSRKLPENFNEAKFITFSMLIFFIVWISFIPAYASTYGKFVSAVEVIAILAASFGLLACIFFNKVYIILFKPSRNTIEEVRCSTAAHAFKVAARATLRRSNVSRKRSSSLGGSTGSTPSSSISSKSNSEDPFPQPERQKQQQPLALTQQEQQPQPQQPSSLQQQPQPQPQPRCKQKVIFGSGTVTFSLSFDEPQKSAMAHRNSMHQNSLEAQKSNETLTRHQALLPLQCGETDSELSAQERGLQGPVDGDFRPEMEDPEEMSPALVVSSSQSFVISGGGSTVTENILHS
Experiment: In vitro cellular luminescence assay for activation of fCaSR (HEK T-Rex/natClytin clone K 5.1, FLIPR Tetra), agonist mode and PAM mode
Type: cell-based
Conditions: for CaSR agonists and PAMs (mode of action on CaSR): classification as agonist, PAM or not active
Source text: Summary. The full length coding sequence of the calcium-sensing receptor (CaSR, a GPCR (3, C or Glutamate family), naturally coupled to Gαq/11 and Gαi (ligand-directed signaling)) from Felis catus (fCaSR) having the sequence described by SEQ ID NO: 7 was synthesized and sub-cloned into suitable expression vectors. The cat CaSR expression constructs were stably transfected in two mammalian cell lines, the HEK-natClytin and the HEK T-Rex/natClytin, two cell lines that allow for detection of changes in intracellular calcium levels through luminescence. A pure selected clone (K 5.1) was used to analyze 12 CaSR ligands (including calcium as a reference agonist control) in a high-throughput screening (HTS) multi-plate test for agonist and positive allosteric modulator (PAM) effects.
A final pure selected clone (K 5.1) was analyzed in a HTS multi-plate test for agonist or positive allosteric modulator (PAM) effects of 12 CaSR ligands (including calcium as a reference agonist control). 10.000 cw of K 5.1 were seeded on poly-D-lys coated 384 well MTPs in medium containing 1 μg/mL of Doxycycline. Screening with the 12 ligands (including calcium control) was conducted 24 hours later. […] For each ligand that activated CaSR as an agonist or PAM, the EC50 value of the ligand was determined.
Detection of CaSR receptor activation. Transfected cells were analyzed for a response to a reference agonist (calcium) or various CaSR ligands by detecting Ca^2+ sensitive photoprotein luminescence. The experiments were performed in a 384 well format according to one of the following procedures: • 7.500 cw were plated on poly-D-lys coated 384 well microtiter plates (MTPs). 24 h later, medium was manually discarded and replaced with fresh medium containing 1 μg/mL of Doxycycline. Experiments were then carried out 48 h after seeding. • 10.000 cw were plated on poly-D-lys coated 384 well MTPs in medium containing 1 μg/mL of Doxycycline. Experiments were carried out 24 hrs later.
On the day of the experiment, medium was removed by plate overthrow and tapping on a paper towel. Cells were then incubated for 3-4 hrs at 37° C. with 10 μM coelenterazine dissolved in 2 mM Ca^2+ or Ca^2+-Free Tyrode's Buffer (20 μL). Cells were exposed to calcium control and/or ligand and the luminescence changes over a period of 1 minute (at 35.000 gain of sensitivity) were monitored using a FLIPR® Tetra screening system. For agonist evaluation, a single exposure protocol was applied (ligands 1º injection, 20 μL-2×), whereas for PAM evaluation a double injection protocol was applied as following: • 1° injection: ligands dose-response (20 μL-2×) • 2° injection: Reference agonist EC20 (20 μL-3×) • Data Analysis. FLIPR® Tetra measurements were analysed with Screenworks© software (Molecular Devices, Version 3.0.1.4) and data were exported as Maximum statistics of Absolute Response (RLU) calculated after compound injection. RLU is obtained applying “Subtract Bias on Sample n” (where n=Time point of compound injection). Mean and standard deviation values were calculated on the exported data with Excel software, and then values were used to create sigmoidal dose-response curves (variable slope) or histograms with GraphPad PRISM® software (Version 6). The obtained EC50/IC50 values were used to calculate EC50/[…] values according to the following formula: ECX=[(X/100−X)1/HillSlope]*EC50
Cell lines, Medium and Culture Conditions. The experiments were done using HEK-natClytin or HEK T-Rex/natClytin reporter cell lines that were generated by stable transfection of the photoprotein natClytin into HEK-293 or HEK-293 T-Rex (HEK T-Rex, Invitrogen) cell lines respectively.
For experimental conditions, cells were plated on poly-D-lys coated 384 well MTPs according to one of the following conditions: • 7.500 cw.

Row | Molecule | CaSR agonists and PAMs (mode of action on CaSR) | EC50 [mM] | also measured
1 | O.O.[Ca+2].[Cl-].[Cl-] [Calcium (Ca^2+), Calcium chloride (dihydrate)] | (agonist) |  | 
2 | C[C@@H](NCCCc1cccc(C(F)(F)F)c1)c1cccc2ccccc12 [Cinacalcet] | Cinacalcet (PAM) | 0.001 | CaSR agonists and PAMs (mode of action on CaSR) (listed as cinacalcet): activated CaSR as PAMs
3 | NC(CCC(=O)NC(CS)C(=O)NCC(=O)O)C(=O)O [L-Glutathione, L-Glutathione (γ-Glu-Cys-Gly)] | L-Glutathione (agonist) |  | EC50 (agonist mode, single injection, HEK T-Rex/natClytin-fCaSR clone K 5.1, photoprotein luminescence, tested up to the MAX dose in c1/c2, read-out: Agonist EC50): 8.2 mM
4 | NCC1O[C@H](O[C@@H]2C(N)C[C@@H](N)C(O)C2O[C@@H]2O[C@H](CO)C(OC3O[C@@H](CN)C(O)C(O)[C@H]3N)C2O)C(N)C(O)[C@@H]1O (some centres unmarked) [Neomycin] | Neomycin (agonist) | 10 | 
5 | NCCCCN [Putrescine] | Putrescine (not active) |  | 
6 | NCCCCNCCCN [Spermidine] | Spermidine (agonist) | 1.3 | 
7 | NCCCNCCCCNCCCN [Spermine] | Spermine (agonist) |  | 
8 | Calindol | Calindol (PAM) |  | CaSR agonists and PAMs (mode of action on CaSR) (listed as calindol): activated CaSR as PAMs
9 | Magnesium chloride (hexahydrate) [Magnesium (Mg^2+)] | (agonist) |  | 
10 | Poly-L-Arginine | Poly-L-Arginine (agonist) |  | Agonist EC50 (agonist mode, single injection, HEK T-Rex/natClytin-fCaSR clone K 5.1, MAX dose 60 μg/mL): 4.6 µg/mL
